Patent publication US8871680B2, “Herbicidal compositions comprising 4-amino-3-chloro-5-fluoro-6-(4-chloro-2-fluoro-3-methoxyphenyl) pyridine-2-carboxylic acid or a derivative thereof and a di-methoxy-pyrimidine and derivatives thereof” (Dow AgroSciences LLC, priority 2012, dated 2014)

What was measured:
[1] = tested on: ECHCG; test: In-water applied weed control, transplanted paddy rice (greenhouse); assay type: in vivo, Echinochloa crusgalli (L.) Beauv.
Description: (§1) Weed seeds or nutlets of the desired test plant species were planted in puddled soil (mud) prepared by mixing a shredded, non-sterilized mineral soil (50.5 percent silt, 25.5 percent clay, and 24 percent sand, with a pH of about 7.6 and an organic matter content of about 2.9 percent) and water at a 1:1 volumetric ratio. The prepared mud was dispensed in 365 mL aliquots into 16-ounce (oz.) non-perforated plastic pots with a surface area of 86.59 square centimeters (cm^2) leaving a headspace of 3 centimeters (cm) in each pot. Mud was allowed to dry overnight prior to planting or transplanting. Rice seeds were planted in Sun Gro MetroMix® 306 planting mixture, which typically has a pH of 6.0 to 6.8 and an organic matter content of about 30 percent, in plastic plug trays. Seedlings at the second or third leaf stage of growth were transplanted into 860 mL of mud contained in 32-oz. non-perforated plastic pots with a surface area of 86.59 cm^2 4 days prior to herbicide application. The paddy was created by filling the headspace of the pots with 2.5 to 3 cm of water. When required to ensure good germination and healthy plants, a fungicide treatment and/or other chemical or physical treatment was applied. The plants were grown for 4-22 days in a greenhouse with an approximate 14 hr photoperiod which was maintained at about 29′C during the day and 26° C. during the night. Nutrients were added as Osmocote® (19:6:12, N:P:K+minor nutrients) at 2 g per 16-oz. pot and 4 g per 32-oz. pot. Water was added on a regular basis to maintain the paddy flood, and supplemental lighting was provided with overhead metal halide 1000-Watt lamps as necessary. The plants were employed for testing when they reached the first through fourth true leaf stage.
(§2) Treatments consisted of the acid or esters of 4-amino-3-chloro-5-fluoro-6-(4-chloro-2-fluoro-3-methoxy-phenyl)pyridine-2-carboxylic acid (compound A) each formulated as an SC and various herbicidal components alone and in combination. Forms of compound A were applied on an acid equivalent basis.
(§3) Other herbicidal components were applied on an active ingredient basis and included the dimethoxy-pyrimidine acid acetolactate synthase (ALS)-inhibiting herbicides bispyribac-sodium formulated as Regiment® 80 WP, pyriminobac-methyl formulated as Hie Clean®, and pyriftalid (technical grade material).
(§4) Treatment requirements for each compound or herbicidal component were calculated based upon the rates being tested, the concentration of active ingredient or acid equivalent in the formulation, an application volume of 2 mL per component per pot, and an application area of 86.59 cm^2 per pot.
(§5) For formulated compounds, a measured amount was placed in an individual 100 or 200 mL glass vial and was dissolved in a volume of 1.25% (v/v) Agri-Dex® crop oil concentrate to obtain application solutions.
(§6) For technical grade compounds, a weighed amount was placed in an individual 100 to 200 mL glass vial and was dissolved in a volume of acetone to obtain concentrated stock solutions. […] The concentrated stock solutions obtained were diluted with an equivalent volume of an aqueous mixture containing 2.5% (v/v) crop oil concentrate so that the final application solutions contained 1.25% (v/v) crop oil concentrate.
(§7) Applications were made by injecting with a pipetter appropriate amounts of the application solutions, individually and sequentially, into the aqueous layer of the paddy.
(§8) Control plants were treated in the same manner with the solvent blank. Applications were made so that all treated plant material received the same concentrations of acetone and crop oil concentrate.
(§9) The treated plants and control plants were placed in a greenhouse as described above and water was added as needed to maintain a paddy flood. […]

[2] = tested on: LEFCH; test: as above; assay type: in vivo, Leptochloa chinensis (L.) Nees; conditions: 40 gai/ha
Description: as §1, §2, §3, §4, §5, §6, §7
(§10) Control plants were treated in the same manner with the solvent blank. […]

[3] = tested on: CYPRO; test: as above; assay type: in vivo, Cyperus rotundus L.
Description: as §1, §2, §3, §4, §5, §6, §7, §8, §9

[4] = tested on: SCPMA; test: as above; assay type: in vivo, Bolboschoenus maritimus (L.) Palla
Description: as §1, §2, §3, §4, §5, §6, §7, §8, §9

[5] = tested on: ECHOR; test: as above; assay type: in vivo, Echinochloa oryzoides (Ard.) Fritsch
Description: as §1, §2, §3, §4, §5, §6, §7, §10

[6] = tested on: LEFCH; test: Postemergence foliar-applied weed control, direct seeded rice (greenhouse); assay type: in vivo, Leptochloa chinensis (L.) Nees
Description: (§11) Seeds or nutlets of the desired test plant species were planted in a soil matrix prepared by mixing a loam or sandy loam soil (e.g., 28.6 percent silt, 18.8 percent clay, and 52.6 percent sand, with a pH of about 5.8 and an organic matter content of about 1.8 percent) and calcareous grit in an 80 to 20 ratio. The soil matrix was contained in plastic pots with a volume of 1 quart and a surface area of 83.6 square centimeters (cm^2). When required to ensure good germination and healthy plants, a fungicide treatment and/or other chemical or physical treatment was applied. The plants were grown for 8-22 days in a greenhouse with an approximate 14 hr photoperiod which was maintained at about 29° C. during the day and 26° C. during the night. Nutrients (Peters Excel® 15-5-15 5-Ca 2-Mg and iron chelate) were applied in the irrigation solution as needed and water was added on a regular basis. Supplemental lighting was provided with overhead metal halide 1000-Watt lamps as necessary. The plants were employed for testing when they reached the first through fourth true leaf stage.
(§12) Treatments consisted of the acid or esters of 4-amino-3-chloro-5-fluoro-6-(4-chloro-2-fluoro-3-methoxy-phenyl)pyridine-2-carboxylic acid (Compound A), each formulated as an SC (suspension concentrate), and various herbicidal components alone and in combination. Forms of compound A were applied on an acid equivalent basis.
(§13) Other herbicidal components were applied on an active ingredient basis and included the dimethoxy-pyrimidine acid acetolactate synthase (ALS)-inhibiting herbicides bispyribac-sodium formulated as Regiment® 80WP, pyribenzoxim (technical grade material), pyriminobac-methyl formulated as Hie-Clean® 1.2% GR dissolved in water, and pyriftalid (technical grade material).
(§14) Treatment requirements were calculated based upon the rates being tested, the concentration of active ingredient or acid equivalent in the formulation, and a 12 mL application volume at a rate of 187 L/ha.
(§15) For treatments comprised of formulated compounds, measured amounts of compounds were placed individually in 25 mL glass vials and diluted in a volume of 1.25% (v/v) Agri-Dex® crop oil concentrated to obtain 12× stock solutions. […] Application solutions were prepared by adding an appropriate amount of each stock solution (e.g., 1 mL) and diluted to the appropriate final concentrations with the addition of 10 mL of an aqueous mixture of 1.25% (v/v) crop oil concentrate so that the final spray solutions contained 1.25+/−0.005% (v/v) crop oil concentrate.
(§16) For treatments comprised of technical compounds, weighed amounts can be placed individually in 25 mL glass vials and dissolved in a volume of 97:3 v/v acetone/DMSO to obtain 12× stock solutions. […] Application solutions can be prepared by adding an appropriate amount of each stock solution (e.g., 1 mL) and diluted to the appropriate final concentrations with the addition of 10 mL of an aqueous mixture of 1.5% (v/v) crop oil concentrate so that the final spray solutions contain 1.25% (v/v) crop oil concentrate. When technical materials are used, the concentrated stock solutions can be added to the spray solutions so that the final acetone and DMSO concentrations of the application solutions are 16.2% and 0.5%, respectively.
(§17) For treatments comprised of formulated and technical compounds, weighed amounts of the technical materials were placed individually in 25 mL glass vials and dissolved in a volume of 97:3 v/v acetone/DMSO to obtain 12× stock solutions, and measured amounts of the formulated compounds were placed individually in 25 mL glass vials and diluted in a volume of 1.5% (v/v) crop oil concentrate or water to obtain 12× stock solutions. […]

[7] = tested on: FIMMI; test: In-water applied weed control, transplanted paddy rice (greenhouse); assay type: in vivo, Fimbristylis miliacea (L.) Vahl
Description: as §1, §2, §3, §4, §5, §6, §7, §8, §9

[8] = tested on: ECHCG; test: Postemergence foliar-applied weed control, direct seeded rice (greenhouse); assay type: in vivo, Echinochloa crusgalli (L.) Beauv.
Description: as §11, with “stage. […]” for “stage.”
as §14
(§18) For treatments comprised of formulated compounds, measured amounts of compounds were placed individually in 25 mL glass vials and diluted in a volume of 1.25% (v/v) Agri-Dex® crop oil concentrated to obtain 12× stock solutions. […]
as §17

[9] = tested on: IPOHE; test: as above; assay type: in vivo, Ipomoea hederacea Jacq.
Description: as §11, §12, §13, §14, §15, §16, §17

[10] = tested on: BRAPP; test: as above; assay type: in vivo, Brachiaria platyphylla (Griseb.) Nash
Description: as §11, with “stage. […]” for “stage.”
as §14, §18, §17

## COc1cc(OC)nc(Oc2cccc(Oc3nc(OC)cc(OC)n3)c2C(=O)[O-])n1.[Na+] [Bispyribac-Sodium, sodium 2,6-bis[(4,6-dimethoxy-2-pyrimidinyl)oxy]benzoate, reference compound]
[1]; 10 gai/ha
  Visual Weed Control (%) - 20 DAA ECHCG Obs: 20%
[1]; 20 gai/ha
  Visual Weed Control (%) - 20 DAA ECHCG Obs: 35%
[1]; 40 gai/ha
  Visual Weed Control (%) - 20 DAA ECHCG Obs: 30%
[2]
  Visual Weed Control (%)-20 DAA LEFCH Obs: 28%
[3]; 10 gai/ha
  Visual Weed Control (%)-20 DAA CYPRO Obs: 0%
[3]; 20 gai/ha
  Visual Weed Control (%)-20 DAA CYPRO Obs: 0%
[4]; 40 gai/ha, Table 7
  Visual Weed Control (%)-20 DAA SCPMA Obs: 38%
[4]; 40 gai/ha, Table 8
  Visual Weed Control (%)-20 DAA SCPMA Obs: 38%
[4]; 40 gai/ha, Table 9
  Visual Weed Control (%)-20 DAA SCPMA Obs: 38%
[5]; 40 gai/ha, Table 7
  Visual Weed Control (%)-20 DAA ECHOR Obs: 30%
[5]; 40 gai/ha, Table 9
  Visual Weed Control (%)-20 DAA ECHOR Obs: 30%
[6]; 7 gai/ha
  Visual Weed Control (%)-20 DAA LEFCH Obs: 0%
[6]; 14 gai/ha
  Visual Weed Control (%)-20 DAA LEFCH Obs: 0%

## COc1c(Cl)ccc(-c2nc(C(=O)OCc3ccccc3)c(Cl)c(N)c2F)c1F [Compound A Benzyl Ester]
[7]; 4.38 gae/ha
  Visual Weed Control (%)-21 DAA FIMMI Obs: 20%
[3]; 4.38 gae/ha
  Visual Weed Control (%)-20 DAA CYPRO Obs: 50%
[3]; 4.38 gae/ha, Table 11
  Visual Weed Control (%)-21 DAA CYPRO Obs: 0%
[3]; 4.38 gae/ha, Table 13
  Visual Weed Control (%)-21 DAA CYPRO Obs: 30%
[3]; 8.75 gae/ha, Table 11
  Visual Weed Control (%)-21 DAA CYPRO Obs: 20%
[3]; 8.75 gae/ha, Table 13
  Visual Weed Control (%)-21 DAA CYPRO Obs: 60%
[3]; 17.5 gae/ha
  Visual Weed Control (%)-21 DAA CYPRO Obs: 10%
[4]; 4.38 gae/ha
  Visual Weed Control (%)-21 DAA SCPMA Obs: 0%
[4]; 8.75 gae/ha
  Visual Weed Control (%)-21 DAA SCPMA Obs: 0%
[4]; 35 gae/ha
  Visual Weed Control (%)-20 DAA SCPMA Obs: 0%
[4]; 35 gae/ha, Table 11
  Visual Weed Control (%)-20 DAA SCPMA Obs: 0%
[4]; 70 gae/ha
  Visual Weed Control (%)-20 DAA SCPMA Obs: 0%
[8]; 8 gae/ha
  Visual Weed Control (%) - 20 DAA ECHCG Obs: 75%
[8]; 16 gae/ha
  Visual Weed Control (%) - 20 DAA ECHCG Obs: 85%
[9]; 4.38 gae/ha
  Visual Weed Control (%)-24 DAA IPOHE Obs: 10%
[9]; 8.75 gae/ha
  Visual Weed Control (%)-24 DAA IPOHE Obs: 15%
[9]; 17.5 gae/ha
  Visual Weed Control (%)-21 DAA IPOHE Obs: 43%
  Visual Weed Control (%)-24 DAA IPOHE Obs: 30%
[6]; 4.38 gae/ha
  Visual Weed Control (%)-24 DAA LEFCH Obs: 0%
[6]; 8.75 gae/ha
  Visual Weed Control (%)-20 DAA LEFCH Obs: 10%
  Visual Weed Control (%)-24 DAA LEFCH Obs: 0%
[6]; 17.5 gae/ha
  Visual Weed Control (%)-20 DAA LEFCH Obs: 20%
  Visual Weed Control (%)-22 DAA LEFCH Obs: 25%
  Visual Weed Control (%)-24 DAA LEFCH Obs: 10%

## CCCCOC(=O)c1nc(-c2ccc(Cl)c(OC)c2F)c(F)c(N)c1Cl [Compound A n-Butyl Ester]
[4]; 70 gae/ha
  Visual Weed Control (%)-20 DAA SCPMA Obs: 0%
[5]; 35 gae/ha
  Visual Weed Control (%)-20 DAA ECHOR Obs: 35%
[5]; 70 gae/ha
  Visual Weed Control (%)-20 DAA ECHOR Obs: 40%

## COc1cc(OC)nc(Oc2cccc(Oc3nc(OC)cc(OC)n3)c2C(=O)ON=C(c2ccccc2)c2ccccc2)n1 [Pyribenzoxim, diphenylmethanone O-[2,6-bis[(4,6-dimethoxy-2-pyrimidinyl)oxy]benzoyl]oxime, reference compound]
[8]; 70 gai/ha
  Visual Weed Control (%) - 20 DAA ECHCG Obs: 85%

## COc1cc(OC)nc(Sc2cccc3c2C(=O)OC3C)n1 (stereo not drawn) [Pyriftalid, 7-[(4,6-dimethoxy-2-pyrimidinyl)thio]-3-methyl-1 (3H)-isobenzofuranone, reference compound]
[7]; 45 gai/ha
  Visual Weed Control (%)-21 DAA FIMMI Obs: 50%
[7]; 90 gai/ha
  Visual Weed Control (%)-21 DAA FIMMI Obs: 30%
[3]; 45 gai/ha, Table 12
  Visual Weed Control (%)-21 DAA CYPRO Obs: 0%
[3]; 45 gai/ha, Table 13
  Visual Weed Control (%)-21 DAA CYPRO Obs: 0%
[3]; 90 gai/ha, Table 12
  Visual Weed Control (%)-21 DAA CYPRO Obs: 0%
[3]; 90 gai/ha, Table 13
  Visual Weed Control (%)-21 DAA CYPRO Obs: 0%
[10]; 45 gai/ha
  Visual Weed Control (%)-22 DAA BRAPP Obs: 0%
[10]; 90 gai/ha
  Visual Weed Control (%)-22 DAA BRAPP Obs: 0%
[6]; 45 gai/ha
  Visual Weed Control (%)-22 DAA LEFCH Obs: 0%
[6]; 90 gai/ha
  Visual Weed Control (%)-22 DAA LEFCH Obs: 0%
